Assay results taken from US20230416330A1, “Optimized GIP Peptide Analogues” (Antag Therapeutics ApS, priority 2019, published 2023).
Read-outs that look alike come from different tables or passages of the source. Starred links: 1 amine or outer side, 2 acyl side, 3 side chain; linkers in the order of their positions; H or OH if unused. Non-standard residues stand in square brackets, D forms with d. Residues, ends and D or L forms follow the SMILES beside them. Groups on a side chain read outwards from the residue. *: point of attachment. C18 diacid = O=C(O)CCCCCCCCCCCCCCCCC(=O)*; C16 diacid = O=C(O)CCCCCCCCCCCCCCC(=O)*; γGlu = O=C(O)[C@H](CCC(=O)[*:2])N[*:1]; AEEA = NCCOCCOCC(=O)O; Aib = CC(C)(N)C(=O)O

How the values were obtained:
[1] = Physical stability: fibril formation in Thioflavin T (ThT) assay with agitation; assay type: physicochemical; settings: 25° C., agitation
Procedure, shortened: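 Peptides at 1, 5, 7.5 or 15 mg/ml in 50 mM sodium phosphate pH 7.4 or in water adjusted to pH 7.4 with NaOH, filtered 0.22 μm, with ThT added. Wells held a 3 mm silica bead under 300 rpm orbital agitation at 25° C. Emission at 486 nm tracked continuously; lag time = 10% of transition above baseline.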

[2] = Solubility by visual inspection of peptide solutions; assay type: physicochemical
Procedure, shortened: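 Peptides dissolved at 1, 5, 7.5 or 15 mg/ml in 50 mM sodium phosphate pH 7.4 or water adjusted to pH 7.4 with NaOH, with gentle mixing. Immediate solubility judged visually as a clear, colorless solution.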

human GIP receptor = molecular target: T1, human GIP receptor (Homo sapiens, UniProt P48546); assay: cAMP assay Alternative 2 (Gaddum assay), antagonist potency pKb; assay type: cell-based
T1 construct: host or cells: HEK-293 cells, transient transfection (Lipofectamine 2000), cDNA in pCMV-Script vector
T1 sequence (P48546 22-466): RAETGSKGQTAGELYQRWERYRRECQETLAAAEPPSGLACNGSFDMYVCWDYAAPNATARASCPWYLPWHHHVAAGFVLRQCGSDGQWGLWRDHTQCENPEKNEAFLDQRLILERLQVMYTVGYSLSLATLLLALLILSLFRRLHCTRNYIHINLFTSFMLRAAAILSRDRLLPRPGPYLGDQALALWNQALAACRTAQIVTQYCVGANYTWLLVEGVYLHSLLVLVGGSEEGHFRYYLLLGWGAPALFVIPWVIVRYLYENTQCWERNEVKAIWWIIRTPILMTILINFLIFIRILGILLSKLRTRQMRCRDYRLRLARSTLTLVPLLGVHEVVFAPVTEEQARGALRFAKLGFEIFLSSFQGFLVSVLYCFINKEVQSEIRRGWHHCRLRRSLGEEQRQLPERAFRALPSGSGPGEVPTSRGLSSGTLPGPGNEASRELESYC
Experimental: HEK293 cells were cultured in 10% CO2 and 37° C. in Dulbecco's modified Eagle's medium supplemented with 10% fetal bovine serum, 2 mM glutamine, 180 units/ml penicillin, and 45 µg/ml streptomycin. Transient transfection with hGIPR for the CisBio assay from Table 2C was performed by using Lipofectamine 2000.
Antagonist potency (pKb) was estimated in a functional setting. The estimated pKb values were calculated from the shifts of the agonist-concentration-response curves in the presence of a single dose of GIP peptide antagonists using the Gaddum equation: pKb=log(DR-1)-log(B), where DR (EC50′/EC50) is the dose ratio calculated from EC50 of GIP1-42 obtained in the presence and absence (EC50) of antagonist, and B is the antagonist concentration used.
The in vitro functional assessment of compounds towards human GIP receptor was determined in HEK-293 cells transiently expressing the receptor. On the day of the assay, cells were resuspended in HBSS buffer (Gibco, 14025-50) supplemented with […] (Gibco, 15630-106), 0.1% Pluronic F-68 (Gibco, 24040-032) and 0.1% casein (Sigma, C4765), and plated in 384-well plates at a density of 3500 cells/well. The GIP peptide analogues of the present disclosure were diluted in HBSS buffer supplemented with 20 mM HEPES, 0.1% pluronic, 0.1% casein and 500 uM IBMX. […] Increasing dose of agonist (GIP1-42) was subsequently added to cells and incubated for additionally 30 min at 37° C. The intracellular cAMP was quantitatively determined using the CisBio cAMP Dynamic 2 HTRF Assay Kit. The assay is based on a competition between native cAMP produced by cells and cAMP labeled with the dye d2 for binding to a cryptate labeled antibody. The specific signal (i.e. energy transfer signal) is inversely proportional to the concentration of cAMP in the sample.
The cAMP-d2 conjugate and the antibody anti-cAMP-Cryptate, both diluted in lysis buffer provided in the kit, were added to the cells according to the manufacturer's protocol. The resulting competitive assay was incubated for 60 minutes at room temperature, and the signal was detected by using a PerkinElmer Envision® instrument with excitation at 320 nm and emission at 665 nm and 620 nm. The HTRF ratio (emission at 665 nm/620 nm*10,000) is inversely proportional to the amount of cAMP present and is converted to nM cAMP per well using a cAMP standard curve.

[3] = Table 2C, Gaddum equation, single antagonist dose, HEK-293 hGIPR, read-out: nM (Kb)

Compound | Avr lag time (h) ([1]; 1 mg/ml, TFA, Phosphate (7.4)) | Visual appearance ([2]; 1 mg/ml, TFA, Phosphate (7.4)) | Kb (human GIP receptor; [3]) [nM] | Avr lag time (h) ([1]; 7.5 mg/ml, Na, MilliQ (8)) | Avr lag time (h) ([1]; 15 mg/ml, Na, MilliQ (8)) | Visual appearance ([2]; 7.5 mg/ml, Na, MilliQ (8)) | Visual appearance ([2]; 15 mg/ml, Na, MilliQ (8)) | Kb (human GIP receptor) [nM]
CC[C@H](C)[C@H](NC(=O)[C@H](CO)NC(=O)[C@H](Cc1ccc(O)cc1)NC(=O)[C@H](CC(=O)O)NC(=O)[C@H](CO)NC(=O)[C@@H](NC(=O)[C@H](Cc1ccccc1)NC(=O)[C@@H](NC(=O)CNC(=O)[C@@H](N)CCC(=O)O)[C@@H](C)O)[C@@H](C)CC)C(=O)N[C@@H](C)C(=O)N[C@@H](CCSC)C(=O)N[C@@H](CC(=O)O)C(=O)N[C@@H](CCCCN)C(=O)N[C@H](C(=O)N[C@@H](Cc1c[nH]cn1)C(=O)N[C@@H](CCC(N)=O)C(=O)N[C@@H](CCC(N)=O)C(=O)N[C@@H](CC(=O)O)C(=O)N[C@@H](Cc1ccccc1)C(=O)N[C@H](C(=O)N[C@@H](CCC(=O)O)C(=O)N[C@@H](Cc1c[nH]c2ccccc12)C(=O)N[C@@H](CC(C)C)C(=O)N[C@@H](CC(C)C)C(=O)N[C@@H](C)C(=O)N[C@@H](CCC(N)=O)C(=O)N[C@@H](CCCCN)C(=O)N1CCC[C@H]1C(=O)N[C@@H](CO)C(=O)N[C@@H](CO)C(=O)N[C@@H](CCCCNC(=O)CCCCCCCCCCCCCCC(=O)O)C(=O)N[C@@H](C)C(=O)N1CCC[C@H]1C(=O)N1CCC[C@H]1C(=O)N1CCC[C@H]1C(=O)N[C@@H](CO)C(=O)O)C(C)C)[C@@H](C)CC [AT743] (H-EGTFISDYSIAMDKIHQQDFVEWLLAQKPSSK(C16 diacid)APPPS-OH; N-terminus assumed) | fnd (Fnd = fibrils not detected within experiment time (96 hours) with agitation.) | Clear | 19 | – | – | – | – | –
CC[C@H](C)[C@H](NC(=O)[C@H](CCCCN)NC(=O)[C@H](CCC(=O)O)NC(=O)[C@H](CC(C)C)NC(=O)C(C)(C)NC(=O)[C@@H](NC(=O)[C@H](CO)NC(=O)[C@H](Cc1ccc(O)cc1)NC(=O)[C@H](CCC(=O)O)NC(=O)[C@H](CO)NC(=O)[C@@H](NC(=O)[C@H](Cc1ccccc1)NC(=O)[C@@H](NC(=O)CNC(=O)[C@@H](N)CCC(=O)O)[C@@H](C)O)[C@@H](C)CC)[C@@H](C)CC)C(=O)N[C@@H](CCCCNC(=O)COCCOCCNC(=O)COCCOCCNC(=O)CC[C@H](NC(=O)CCCCCCCCCCCCCCCCC(=O)O)C(=O)O)C(=O)N[C@@H](CCC(N)=O)C(=O)N[C@@H](CCC(N)=O)C(=O)N[C@@H](CC(=O)O)C(=O)N[C@@H](Cc1ccccc1)C(=O)N[C@H](C(=O)N[C@@H](CCC(=O)O)C(=O)N[C@@H](Cc1c[nH]c2ccccc12)C(=O)N[C@@H](CC(C)C)C(=O)N[C@@H](CC(C)C)C(=O)N[C@@H](C)C(=O)N[C@@H](CCC(N)=O)C(=O)N[C@@H](CCCCN)C(=O)N1CCC[C@H]1C(=O)N[C@@H](CO)C(=O)N[C@@H](CO)C(=O)NCC(=O)N[C@@H](C)C(=O)N1CCC[C@H]1C(=O)N1CCC[C@H]1C(=O)N1CCC[C@H]1C(=O)N[C@@H](CO)C(=O)O)C(C)C [AT754] (H-EGTFISEYSI[Aib]LEKIK([AEEA-AEEA-γGlu-C18 diacid])QQDFVEWLLAQKPSSGAPPPS-OH; N-terminus assumed) | fnd (Fnd = fibrils not detected within experiment time (96 hours) with agitation.) | Clear | 2.2 | – | – | – | – | –
CC[C@H](C)[C@H](NC(=O)[C@H](CCCCN)NC(=O)[C@H](CCC(=O)O)NC(=O)[C@H](CC(C)C)NC(=O)C(C)(C)NC(=O)[C@@H](NC(=O)[C@H](CO)NC(=O)[C@H](Cc1ccc(O)cc1)NC(=O)[C@H](CCC(=O)O)NC(=O)[C@H](CO)NC(=O)[C@@H](NC(=O)[C@H](Cc1ccccc1)NC(=O)[C@@H](NC(=O)CNC(=O)[C@@H](N)CCC(=O)O)[C@@H](C)O)[C@@H](C)CC)[C@@H](C)CC)C(=O)N[C@@H](CCCCNC(=O)CC[C@H](NC(=O)CCCCCCCCCCCCCCC(=O)O)C(=O)O)C(=O)N[C@@H](CCC(N)=O)C(=O)N[C@@H](CCC(N)=O)C(=O)N[C@@H](CCC(=O)O)C(=O)N[C@@H](Cc1ccccc1)C(=O)N[C@H](C(=O)N[C@@H](CCC(=O)O)C(=O)N[C@@H](Cc1c[nH]c2ccccc12)C(=O)N[C@@H](CC(C)C)C(=O)N[C@@H](CC(C)C)C(=O)N[C@@H](C)C(=O)N[C@@H](CCC(N)=O)C(=O)N[C@@H](CCCCN)C(=O)N1CCC[C@H]1C(=O)N[C@@H](CO)C(=O)N[C@@H](CO)C(=O)NCC(=O)N[C@@H](C)C(=O)N1CCC[C@H]1C(=O)N1CCC[C@H]1C(=O)N1CCC[C@H]1C(=O)N[C@@H](CO)C(=O)O)C(C)C [AT721] (H-EGTFISEYSI[Aib]LEKIK([γGlu-C16 diacid])QQEFVEWLLAQKPSSGAPPPS-OH; N-terminus assumed) | – | – | 0.31 | fnd (Fnd = fibrils not detected within experiment time (96 hours) with agitation.) | fnd (Fnd = fibrils not detected within experiment time (96 hours) with agitation.) | Clear | Clear | –
CC[C@H](C)[C@H](NC(=O)[C@H](CCCCN)NC(=O)[C@H](CC(=O)O)NC(=O)[C@H](CCSC)NC(=O)[C@H](CCCCNC(=O)CCCCCCCCCCCCCCC(=O)O)NC(=O)[C@@H](NC(=O)[C@H](CO)NC(=O)[C@H](Cc1ccc(O)cc1)NC(=O)[C@H](CC(=O)O)NC(=O)[C@H](CO)NC(=O)[C@@H](NC(=O)[C@H](Cc1ccccc1)NC(=O)[C@@H](NC(=O)CNC(=O)[C@@H](N)CCC(=O)O)[C@@H](C)O)[C@@H](C)CC)[C@@H](C)CC)C(=O)N[C@@H](Cc1c[nH]cn1)C(=O)N[C@@H](CCC(N)=O)C(=O)N[C@@H](CCC(N)=O)C(=O)N[C@@H](CC(=O)O)C(=O)N[C@@H](Cc1ccccc1)C(=O)N[C@H](C(=O)N[C@@H](CCC(=O)O)C(=O)N[C@@H](Cc1c[nH]c2ccccc12)C(=O)N[C@@H](CC(C)C)C(=O)N[C@@H](CC(C)C)C(=O)N[C@@H](C)C(=O)N[C@@H](CCC(N)=O)C(=O)N[C@@H](CCCCN)C(=O)N1CCC[C@H]1C(=O)N[C@@H](CO)C(=O)N[C@@H](CO)C(=O)NCC(=O)N[C@@H](C)C(=O)N1CCC[C@H]1C(=O)N1CCC[C@H]1C(=O)N1CCC[C@H]1C(=O)N[C@@H](CO)C(=O)O)C(C)C [AT740] (H-EGTFISDYSIK(C16 diacid)MDKIHQQDFVEWLLAQKPSSGAPPPS-OH; N-terminus assumed) | fnd (Fnd = fibrils not detected within experiment time (96 hours) with agitation.) | Clear | – | – | – | – | – | 14
